These results are taken from ChEMBL document CHEMBL5236580, “Blocking Non-enzymatic Functions by PROTAC-Mediated Targeted Protein Degradation” (J Med Chem, 2022).

pEC50, pIC50: −log10 of the molar value. Where only a bound is given, the exact number is not on record here.

For one experiment, the target named is T1, Aurora kinase A (Homo sapiens, UniProt O14965).
T1 sequence (O14965 whole entry): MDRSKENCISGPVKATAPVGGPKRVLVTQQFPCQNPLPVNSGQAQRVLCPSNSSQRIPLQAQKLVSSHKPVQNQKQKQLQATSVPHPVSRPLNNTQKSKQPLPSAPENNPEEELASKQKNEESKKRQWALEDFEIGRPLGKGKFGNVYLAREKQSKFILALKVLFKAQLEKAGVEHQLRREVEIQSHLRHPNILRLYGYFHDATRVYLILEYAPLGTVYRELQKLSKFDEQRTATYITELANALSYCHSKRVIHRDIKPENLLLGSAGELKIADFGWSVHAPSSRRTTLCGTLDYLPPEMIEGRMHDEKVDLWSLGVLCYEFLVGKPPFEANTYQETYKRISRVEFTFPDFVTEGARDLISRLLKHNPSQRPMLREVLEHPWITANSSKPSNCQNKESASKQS
The experiment is described as follows: Induction of degradation of AURORA-A in human MV4-11 cells. Format: cell-based.

Experiment [1] can be described thus: Antitumor activity against human MDSC cells xenografted in BALB/c mouse assessed as tumor growth inhibition relative to control. Format: functional, Myeloid-derived suppressor cell.
In experiment [2] the target is T2, Histone-lysine N-methyltransferase EZH2 (Homo sapiens, UniProt Q15910). The experiment is described as follows: Inhibition of EZH2 (unknown origin).
Target sequence in this assay (Q15910 whole entry): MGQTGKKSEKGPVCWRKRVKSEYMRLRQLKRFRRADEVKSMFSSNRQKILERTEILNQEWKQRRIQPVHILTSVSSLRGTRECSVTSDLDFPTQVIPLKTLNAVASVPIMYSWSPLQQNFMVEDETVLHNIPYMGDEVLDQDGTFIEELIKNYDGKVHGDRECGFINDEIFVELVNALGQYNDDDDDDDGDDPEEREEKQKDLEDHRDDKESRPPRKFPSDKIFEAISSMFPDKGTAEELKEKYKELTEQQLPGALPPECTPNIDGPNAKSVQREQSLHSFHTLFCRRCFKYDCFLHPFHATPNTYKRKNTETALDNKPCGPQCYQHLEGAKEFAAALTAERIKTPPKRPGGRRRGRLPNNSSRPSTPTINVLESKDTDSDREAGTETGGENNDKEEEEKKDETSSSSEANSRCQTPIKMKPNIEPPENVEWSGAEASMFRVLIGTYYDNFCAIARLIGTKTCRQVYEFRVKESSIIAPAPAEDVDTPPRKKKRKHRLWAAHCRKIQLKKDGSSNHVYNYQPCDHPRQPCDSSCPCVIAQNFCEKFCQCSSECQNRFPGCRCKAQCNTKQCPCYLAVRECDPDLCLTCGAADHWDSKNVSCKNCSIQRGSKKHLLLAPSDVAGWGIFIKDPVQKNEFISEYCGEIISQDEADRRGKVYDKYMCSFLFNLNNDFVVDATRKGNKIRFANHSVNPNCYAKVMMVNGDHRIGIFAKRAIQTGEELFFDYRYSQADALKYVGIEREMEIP
Experiment [3] is described as follows: Growth inhibition of human Triple-negative breast cancer cells. The settings on record: Triple-negative breast cancer cell. It counts as functional.
For experiment [4], the target named is T2, Histone-lysine N-methyltransferase EZH2. The experiment is described as follows: Induction of degradation of EZH2 degradation in human MDA-MB-453 cells. It counts as cell-based.
Target sequence in this assay (Q15910 whole entry): as above
Experiment [5] is described as follows: Antiproliferative activity against human Triple-negative breast cancer cells assessed as cell growth inhibition. Format: functional.
Experiment [6] in a line: Antiproliferative activity against human TNBC ductal adenocarcinoma cells assessed as cell growth inhibition. It counts as functional. As to conditions: Triple-negative breast cancer cell.
Experiment [7] concerns the target T3, Focal adhesion kinase 1 (Homo sapiens, UniProt Q05397). The experiment is described as follows: Induction of degradation of Fak in human PC-3 cells. Format: cell-based.
Target sequence in this assay (Q05397 whole entry): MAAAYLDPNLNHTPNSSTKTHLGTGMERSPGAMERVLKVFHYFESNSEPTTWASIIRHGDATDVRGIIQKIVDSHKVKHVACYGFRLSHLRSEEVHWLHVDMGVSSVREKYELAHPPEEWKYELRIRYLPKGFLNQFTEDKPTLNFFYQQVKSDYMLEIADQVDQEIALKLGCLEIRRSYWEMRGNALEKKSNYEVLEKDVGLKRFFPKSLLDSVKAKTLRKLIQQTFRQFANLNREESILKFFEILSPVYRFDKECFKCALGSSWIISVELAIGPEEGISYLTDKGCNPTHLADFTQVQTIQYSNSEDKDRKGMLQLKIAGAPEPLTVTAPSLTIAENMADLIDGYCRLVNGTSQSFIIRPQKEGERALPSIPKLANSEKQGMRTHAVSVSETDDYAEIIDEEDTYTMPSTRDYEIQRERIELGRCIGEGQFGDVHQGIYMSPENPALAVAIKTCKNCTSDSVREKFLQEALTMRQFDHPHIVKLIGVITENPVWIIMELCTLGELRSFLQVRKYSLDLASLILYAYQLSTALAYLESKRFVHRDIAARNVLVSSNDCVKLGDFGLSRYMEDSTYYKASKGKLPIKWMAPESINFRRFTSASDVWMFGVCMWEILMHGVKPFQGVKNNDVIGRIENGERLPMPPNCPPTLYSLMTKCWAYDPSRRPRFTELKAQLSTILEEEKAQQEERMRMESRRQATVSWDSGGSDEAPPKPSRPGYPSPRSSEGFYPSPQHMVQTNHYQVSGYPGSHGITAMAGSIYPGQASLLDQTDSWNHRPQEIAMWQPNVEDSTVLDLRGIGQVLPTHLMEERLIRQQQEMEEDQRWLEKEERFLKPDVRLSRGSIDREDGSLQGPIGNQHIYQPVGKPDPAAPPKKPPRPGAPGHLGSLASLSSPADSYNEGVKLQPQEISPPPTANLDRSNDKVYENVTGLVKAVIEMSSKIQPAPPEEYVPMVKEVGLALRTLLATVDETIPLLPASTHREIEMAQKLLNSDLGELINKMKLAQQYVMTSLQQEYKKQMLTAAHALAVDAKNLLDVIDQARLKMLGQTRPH
Experiment [8] deals with T3, Focal adhesion kinase 1. The experiment is described as follows: Induction of degradation of Fak in human PC-3 cells assessed as maximum degradation relative to control. It counts as cell-based.
Target sequence in this assay (Q05397 2-1052 limits assumed): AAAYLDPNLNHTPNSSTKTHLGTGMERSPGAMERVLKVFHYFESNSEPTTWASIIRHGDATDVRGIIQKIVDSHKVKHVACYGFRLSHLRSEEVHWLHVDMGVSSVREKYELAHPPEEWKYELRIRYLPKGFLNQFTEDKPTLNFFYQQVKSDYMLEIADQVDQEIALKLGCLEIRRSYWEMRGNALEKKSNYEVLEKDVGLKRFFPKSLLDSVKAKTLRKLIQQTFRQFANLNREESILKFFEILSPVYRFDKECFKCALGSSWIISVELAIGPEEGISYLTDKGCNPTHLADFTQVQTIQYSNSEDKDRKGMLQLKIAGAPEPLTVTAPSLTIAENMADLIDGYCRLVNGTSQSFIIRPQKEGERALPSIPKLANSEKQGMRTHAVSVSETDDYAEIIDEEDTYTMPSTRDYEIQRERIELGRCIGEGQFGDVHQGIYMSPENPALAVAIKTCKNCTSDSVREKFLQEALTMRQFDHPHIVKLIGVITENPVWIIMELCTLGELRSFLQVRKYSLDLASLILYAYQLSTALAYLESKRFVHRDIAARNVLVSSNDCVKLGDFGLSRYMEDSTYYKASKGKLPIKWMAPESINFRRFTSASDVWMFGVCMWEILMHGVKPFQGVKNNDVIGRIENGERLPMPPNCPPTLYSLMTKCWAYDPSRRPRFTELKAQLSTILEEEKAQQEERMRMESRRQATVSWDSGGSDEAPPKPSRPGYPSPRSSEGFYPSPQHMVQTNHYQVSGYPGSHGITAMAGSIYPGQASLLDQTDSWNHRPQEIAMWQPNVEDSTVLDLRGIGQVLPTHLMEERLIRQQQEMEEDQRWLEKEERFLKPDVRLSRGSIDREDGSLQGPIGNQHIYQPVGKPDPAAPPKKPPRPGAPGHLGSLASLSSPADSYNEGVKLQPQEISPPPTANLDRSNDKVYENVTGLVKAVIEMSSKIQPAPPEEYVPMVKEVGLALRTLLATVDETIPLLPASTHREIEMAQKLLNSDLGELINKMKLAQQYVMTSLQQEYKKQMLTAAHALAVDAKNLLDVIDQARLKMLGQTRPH
For experiment [9], the target named is T2, Histone-lysine N-methyltransferase EZH2. Description: Induction of degradation of EZH2 in human EOL1 cells. Format: cell-based.
Target sequence in this assay (Q15910 whole entry): as the sequence (Q15910 whole entry) above
Experiment [10] shares this target. The experiment is described as follows: Induction of degradation of EZH2 in human EOL1 cells assessed as maximum degradation relative to control. It counts as cell-based.
Target sequence in this assay (Q15910 whole entry, looked up): as the sequence (Q15910 whole entry) above
Experiment [11] has the same target. Description: Induction of degradation of EZH2 in human MV4-11 cells. Format: cell-based.
Target sequence in this assay (Q15910 whole entry): as above
The target is the same in experiment [12]. The experiment is described as follows: Induction of degradation of EZH2 in human MV4-11 cells assessed as maximum degradation relative to control. It counts as cell-based.
Target sequence in this assay (Q15910 whole entry, looked up): as the sequence (Q15910 whole entry) above
The target in experiment [13] is Protein cereblon/Protein deacetylase HDAC6 (Homo sapiens, UniProt Q96SW2+Q9UBN7). The experiment is described as follows: PROTAC activity at CRBN/HDAC6 in human K562 cells assessed as degradation of HDAC6. It counts as cell-based.
Experiment [14] has as its target Protein cereblon/Protein deacetylase HDAC6 (Homo sapiens) (UniProt Q9UBN7+Q96SW2). Description: PROTAC activity at CRBN/HDAC6 in human K562 cells assessed as degradation of HDAC6 relative to control. It counts as cell-based.
For experiment [15], the target named is T4, von Hippel-Lindau disease tumor suppressor/Focal adhesion kinase 1 (Mus musculus) (UniProt P34152+P40338). Description: In vivo protac activity at VHL/FAK xenografted in CD-1 mouse liver assessed as increased in FAK degradation at 80 mg/kg, sc incubated for 18 hrs relative to control. Format: functional, organism-based.
T4 sequence (P34152 whole entry, looked up): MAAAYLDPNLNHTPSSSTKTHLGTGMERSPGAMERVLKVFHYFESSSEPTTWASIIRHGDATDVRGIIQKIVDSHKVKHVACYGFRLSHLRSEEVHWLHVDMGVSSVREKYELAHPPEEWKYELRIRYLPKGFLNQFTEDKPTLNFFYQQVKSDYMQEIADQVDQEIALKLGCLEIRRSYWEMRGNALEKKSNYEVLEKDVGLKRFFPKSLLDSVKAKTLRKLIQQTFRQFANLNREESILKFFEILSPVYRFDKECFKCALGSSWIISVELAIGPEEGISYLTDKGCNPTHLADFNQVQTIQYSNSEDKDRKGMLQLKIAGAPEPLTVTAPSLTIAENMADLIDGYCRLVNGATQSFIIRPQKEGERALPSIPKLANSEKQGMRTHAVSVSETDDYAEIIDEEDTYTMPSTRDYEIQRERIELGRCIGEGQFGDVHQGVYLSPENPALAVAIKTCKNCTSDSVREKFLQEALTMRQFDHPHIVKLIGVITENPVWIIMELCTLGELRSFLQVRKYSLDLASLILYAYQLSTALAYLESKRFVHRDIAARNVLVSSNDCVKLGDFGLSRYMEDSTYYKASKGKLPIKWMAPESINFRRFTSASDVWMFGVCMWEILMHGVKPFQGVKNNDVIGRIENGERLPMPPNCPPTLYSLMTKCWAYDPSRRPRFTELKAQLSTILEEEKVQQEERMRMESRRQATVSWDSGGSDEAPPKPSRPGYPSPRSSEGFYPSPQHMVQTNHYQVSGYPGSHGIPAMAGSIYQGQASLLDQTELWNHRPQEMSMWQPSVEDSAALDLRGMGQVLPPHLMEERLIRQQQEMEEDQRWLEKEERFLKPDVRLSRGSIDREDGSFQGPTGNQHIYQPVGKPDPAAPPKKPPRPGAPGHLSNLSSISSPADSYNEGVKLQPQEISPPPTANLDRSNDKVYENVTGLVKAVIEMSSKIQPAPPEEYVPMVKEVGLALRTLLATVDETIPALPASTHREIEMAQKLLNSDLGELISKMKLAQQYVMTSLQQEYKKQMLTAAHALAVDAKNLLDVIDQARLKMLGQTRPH
T4 sequence (P40338 whole entry, looked up): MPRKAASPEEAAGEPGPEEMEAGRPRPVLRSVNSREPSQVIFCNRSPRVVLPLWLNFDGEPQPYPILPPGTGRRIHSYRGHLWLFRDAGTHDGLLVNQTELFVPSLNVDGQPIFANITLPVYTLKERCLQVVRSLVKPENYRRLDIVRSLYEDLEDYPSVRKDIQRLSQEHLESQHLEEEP
For experiment [16], the target named is T4, von Hippel-Lindau disease tumor suppressor/Focal adhesion kinase 1 (Mus musculus). The experiment is described as follows: In vivo protac activity at VHL/FAK xenografted in CD-1 mouse liver assessed as reduct ion in FAK level at 80 mg/kg, sc measured after 96 hrs relative to control. Format: functional, organism-based.
Experiment [17] addresses T5, Nicotinamide phosphoribosyltransferase (Homo sapiens, UniProt P43490). The experiment is described as follows: Inhibition of NAMPT (unknown origin).
Target sequence in this assay (P43490 whole entry): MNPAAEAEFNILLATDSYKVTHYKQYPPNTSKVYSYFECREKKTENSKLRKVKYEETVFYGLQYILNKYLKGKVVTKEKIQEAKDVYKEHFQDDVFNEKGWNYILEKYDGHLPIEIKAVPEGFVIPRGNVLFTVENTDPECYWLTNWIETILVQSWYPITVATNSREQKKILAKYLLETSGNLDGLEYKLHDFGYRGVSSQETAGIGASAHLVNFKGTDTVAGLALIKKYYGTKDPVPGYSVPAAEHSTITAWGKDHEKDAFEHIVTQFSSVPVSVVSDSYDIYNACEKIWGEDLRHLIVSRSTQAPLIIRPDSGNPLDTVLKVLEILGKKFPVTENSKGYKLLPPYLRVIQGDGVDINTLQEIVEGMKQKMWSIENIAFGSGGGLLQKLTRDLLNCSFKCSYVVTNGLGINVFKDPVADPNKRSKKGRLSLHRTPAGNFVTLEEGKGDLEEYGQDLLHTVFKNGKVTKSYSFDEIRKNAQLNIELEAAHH
Experiment [18] addresses T5, Nicotinamide phosphoribosyltransferase. Description: Induction of degradation NAMPT (unknown origin).
Target sequence in this assay (P43490 whole entry): as above
The target is the same in experiment [19]. Description: Induction of degradation NAMPT (unknown origin) assessed as maximum degradation relative to control.
Target sequence in this assay (P43490 whole entry, looked up): as the sequence (P43490 whole entry) above
For a further experiment, the system named is MV4-11. The experiment is described as follows: Induction of cell cycle arrest in human MV4-11 cells assessed as accumulation of cells at G2/M phase measured after 12 hrs. It counts as functional, cell-based. The settings on record: MV4-11, 12 h.
Experiment [20] concerns the target Peptidyl-prolyl cis-trans isomerase FKBP1A (Homo sapiens, UniProt P62942). Description: Induction of degradation of FKBP12 (unknown origin).
In experiment [21] the target is Ubiquitin carboxyl-terminal hydrolase 7 (Homo sapiens, UniProt Q93009). The experiment is described as follows: Induction of degradation of USP7 (unknown origin).
A further experiment relates to JeKo-1. Description: Antiproliferative activity against human JeKo-1 cells harbouring p53 mutant. Format: functional, cell-based.
The nature of experiment [22]: Antiproliferative activity against human MINO cells harbouring p53 mutant. Format: functional, cell-based.

Sequence of Peptidyl-prolyl cis-trans isomerase FKBP1A (P62942 whole entry): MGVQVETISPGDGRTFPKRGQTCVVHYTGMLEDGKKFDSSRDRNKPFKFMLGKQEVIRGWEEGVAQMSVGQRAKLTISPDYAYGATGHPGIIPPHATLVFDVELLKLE

On Aurora kinase A, `COc1cc(Nc2ncc3c(n2)-c2ccc(Cl)cc2C(c2c(F)cccc2OC)=NC3)ccc1C(=O)NCCOCCOCCNC(=O)COc1cccc2c1C(=O)N(C1CCC(=O)NC1=O)C2=O` (centres undefined) had a negative logarithm of the EC50 (pEC50) of 7.55.
As to `O=S(=O)(c1ccc(NC(=S)NCc2cccnc2)cc1)N1CCN(Cc2ccccc2)CC1`, the TGI in experiment [1] is recorded as 40%.
Compound `CCN(c1cc(-c2ccc(CN3CCN(C(=O)CCCCCCCC(=O)N[C@H](C(=O)N4C[C@H](OCc5ccccc5)C[C@H]4C(=O)NCc4ccc(-c5scnc5C)cc4)C(C)(C)C)CC3)cc2)cc(C(=O)NCc2c(C)cc(C)[nH]c2=O)c1C)C1CCOCC1` had a negative-log IC50 (pIC50) in [2] of 7.89. Moreover, the 50% growth inhibitory concentration (GI50) in [3] was over 10000 nM.
`CCN(c1cc(-c2ccc(CN3CCN(C(=O)CCCCCCCC(=O)N[C@H](C(=O)N4C[C@H](O)C[C@H]4C(=O)NCc4ccc(-c5scnc5C)cc4)C(C)(C)C)CC3)cc2)cc(C(=O)NCc2c(C)cc(C)[nH]c2=O)c1C)C1CCOCC1`: in [4], the pEC50 was 6.85. For the same compound, the GI50 in [5] was determined as 1700 nM; in [6], 1400 nM.
For the compound `Cc1ncsc1-c1ccc(CNC(=O)[C@@H]2C[C@@H](O)CN2C(=O)[C@@H](NC(=O)CCOCCOc2ccc(Nc3ncc(C(F)(F)F)c(NCc4cccc(N(C)S(C)(=O)=O)c4)n3)cc2)C(C)(C)C)cc1`, on Focal adhesion kinase 1 [7], the pEC50 is 8.52. The Emax at Focal adhesion kinase 1 [8] was 99%.
Consider `Cc1cc(C)c(CNC(=O)c2cc(-c3ccc(N4CCN(CCNC(=O)CCOCCNc5cccc6c5C(=O)N(C5CCC(=O)NC5=O)C6=O)CC4)nc3)cc3c2cnn3C(C)C)c(=O)[nH]1` (centres undefined), for which the results for the pEC50 in [9] and in [11] were 6.70 and 5.82, respectively. For the same compound, the Emax in experiment [10] was determined as 82%; in experiment [12] it was 68%. The negative-log IC50 (pIC50) in [2] was 8.15.
For `O=C(CCCO/N=C1/C(=C2/C(=O)N(Cc3cn(CCOCCNc4cccc5c4C(=O)C(N4CCC(=O)NC4=O)C5=O)nn3)c3ccccc32)Nc2ccccc21)NO` (centres undefined), the pEC50 in [13] is 6.96. In experiment [14], the Emax amounted to 88%.
On to `CNC(=O)c1ccccc1Nc1cc(Nc2ccc(N3CCN(CC(=O)N[C@H](C(=O)N4C[C@H](O)C[C@H]4C(=O)N[C@@H](C)c4ccc(-c5scnc5C)cc4)C(C)(C)C)CC3)cc2OC)ncc1C(F)(F)F`, for which the maximum response (Emax) in [15] is 85%; in experiment [16], 60%.
Regarding `Cc1ncsc1-c1ccc(C(C)NC(=O)C2CC(O)CN2C(=O)C(NC(=O)COCCOCCOCCOCCNC(=O)c2ccc(CN3CCN(S(=O)(=O)c4ccc(NC(=S)NCc5ccccc5)cc4)CC3)cc2)C(C)(C)C)cc1` (centres undefined), in experiment [17], the pIC50 was 8.02. The tumour growth inhibition (TGI) in [1] came to 80%. Besides, the negative logarithm of the EC50 (pEC50) in [18] is 8.15. Besides, the maximal response (Emax) in [19] was found to be 90%.
Consider `COc1cc(Nc2ncc3c(n2)-c2ccc(Cl)cc2C(c2c(F)cccc2OC)=NC3)ccc1C(=O)O` [ALISERTIB], for which the negative-log IC50 (pIC50) with MV4-11 was 8.92.
Compound `COC1C[C@H](C[C@@H](C)[C@@H]2CC(=O)C(C)/C=C(\C)[C@@H](O)[C@@H](OC)C(=O)[C@H](C)C[C@H](C)/C=C/C=C/C=C(\C)[C@@H](OC)C[C@@H]3CC[C@@H](C)[C@](O)(O3)C(=O)C(=O)N3CCCC[C@H]3C(=O)O2)CCC1OCCOCc1cn(CCOCCOCCNc2cccc3c2C(=O)N(C2CCC(=O)NC2=O)C3=O)nn1` (some centres undefined) had a pEC50 in experiment [20] of 9.57.
In [21], `C[C@H](CC(=O)N1CCC(O)(Cn2cnc3c(-c4ccc(CNCCCCCCCCCCCNc5cccc6c5C(=O)N(C5CCC(=O)NC5=O)C6=O)cc4)n(C)nc3c2=O)CC1)c1ccccc1` (some centres undefined) showed a pEC50 of 7.48. The negative logarithm of the IC50 (pIC50) in the experiment on JeKo-1 is 5.99; in experiment [22], 5.93.
Regarding `C[C@H](CC(=O)N1CCC(O)(Cn2cnc3c(-c4ccc(CN)cc4)n(C)nc3c2=O)CC1)c1ccccc1`, the pIC50 (in the experiment with JeKo-1; in experiment [22]) was under 4.70 in each case.
